Results: ChEMBL document CHEMBL5257144, “Novel Serine-Arginine Protein Kinase Inhibitors for Treating Cancer” (ACS Med Chem Lett, 2023)

Target: SRSF protein kinase 1 (Homo sapiens, UniProt Q96SB4)
Experiment: Inhibition of SRPK1 (unknown origin) using RS peptide as substrate incubated for 120 mins in the presence 33P-ATP

Chain of SRSF protein kinase 1 (Q96SB4 whole entry): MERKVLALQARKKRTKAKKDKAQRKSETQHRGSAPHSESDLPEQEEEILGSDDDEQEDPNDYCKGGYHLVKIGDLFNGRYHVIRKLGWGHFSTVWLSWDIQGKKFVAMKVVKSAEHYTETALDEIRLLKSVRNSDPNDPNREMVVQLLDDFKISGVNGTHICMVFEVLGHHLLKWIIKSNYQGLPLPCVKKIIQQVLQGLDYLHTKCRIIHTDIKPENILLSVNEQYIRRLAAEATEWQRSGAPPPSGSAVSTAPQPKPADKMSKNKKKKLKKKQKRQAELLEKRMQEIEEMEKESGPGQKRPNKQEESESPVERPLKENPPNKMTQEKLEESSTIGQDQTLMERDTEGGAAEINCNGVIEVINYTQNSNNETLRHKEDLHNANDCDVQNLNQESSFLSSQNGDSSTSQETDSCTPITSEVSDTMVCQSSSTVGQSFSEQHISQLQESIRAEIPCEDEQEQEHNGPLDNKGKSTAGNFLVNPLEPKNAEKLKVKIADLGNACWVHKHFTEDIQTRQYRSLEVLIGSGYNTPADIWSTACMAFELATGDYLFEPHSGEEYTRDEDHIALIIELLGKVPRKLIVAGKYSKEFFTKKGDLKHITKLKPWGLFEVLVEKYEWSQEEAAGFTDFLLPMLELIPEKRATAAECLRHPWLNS

IC50, < 0.05 µM:
CN(c1ncccc1CNc1cnc(-c2nc3cc(Cl)cc(F)c3[nH]2)nc1)S(C)(=O)=O
CN(c1ncccc1CNc1cnc(-c2nc3cc(F)cc(F)c3[nH]2)nc1)S(C)(=O)=O
CN(c1ncccc1CNc1cnc(-c2nc3cc(-c4cnn(C)c4)ccc3[nH]2)nc1)S(C)(=O)=O
CC(C)c1ccc2[nH]c(-c3ncc(NCc4cccnc4N(C)S(C)(=O)=O)cn3)nc2c1
Cc1ccc2nc(-c3ncc(NCc4cccnc4N(C)S(C)(=O)=O)cn3)[nH]c2c1
CN(c1ncccc1CNc1ccc(-c2nc3cc(Cl)ccc3[nH]2)nc1)S(C)(=O)=O
